Reference: ChEMBL document CHEMBL4725357, “Elucidating the Structural Requirement of Uridylpeptide Antibiotics for Antibacterial Activity” (J Med Chem, 2020)
Values after ≈ are worked out from the molar mass of the structure shown. Blank lines part the entries; values can stand above or below the compound they belong to.

Legend:
[1] = Inhibition of Staphylococcus aureus MraY using UDPMurNAc-dansylpentapeptide as substrate incubated for 3 hrs by fluorescence method
Pseudomonas aeruginosa [2] = test: Antibacterial activity against Pseudomonas aeruginosa isolate 2931 incubated for 18 hrs by CLSI based broth microdilution method; assay type: functional
Pseudomonas aeruginosa [3] = test: Antibacterial activity against Pseudomonas aeruginosa serotype M IID5018 incubated for 18 hrs by CLSI based broth microdilution method; assay type: functional
Pseudomonas aeruginosa [4] = test: Antibacterial activity against Pseudomonas aeruginosa serotype A IID1001 incubated for 18 hrs by CLSI based broth microdilution method; assay type: functional
Pseudomonas aeruginosa [5] = test: Antibacterial activity against Pseudomonas aeruginosa isolate 9728b incubated for 18 hrs by CLSI based broth microdilution method; assay type: functional
Pseudomonas aeruginosa [6] = test: Antibacterial activity against multidrug-resistant Pseudomonas aeruginosa MDRP62 incubated for 18 hrs by CLSI based broth microdilution method; assay type: functional
HepG2 = test: Cytotoxicity against human HepG2 cells after 24 hrs by CCK-8 assay; assay type: cell-based; settings: HepG2, 24 h
Pseudomonas aeruginosa [7] = test: Antibacterial activity against Pseudomonas aeruginosa serotype I IID1010 incubated for 18 hrs by CLSI based broth microdilution method; assay type: functional
Pseudomonas aeruginosa [8] = test: Antibacterial activity against Pseudomonas aeruginosa isolate 1483 incubated for 18 hrs by CLSI based broth microdilution method; assay type: functional
[9] = Inhibition of Staphylococcus aureus MraY using UDPMurNAc-dansylpentapeptide as substrate incubated for 3 to 4 hrs by fluorescence method
Pseudomonas aeruginosa [10] = test: Antibacterial activity against Pseudomonas aeruginosa serotype G IID1020 incubated for 18 hrs by CLSI based broth microdilution method; assay type: functional
Pseudomonas aeruginosa [11] = test: Antibacterial activity against Pseudomonas aeruginosa serotype F IID1006 incubated for 18 hrs by CLSI based broth microdilution method; assay type: functional
Pseudomonas aeruginosa [12] = test: Antibacterial activity against Pseudomonas aeruginosa serotype C IID1021 incubated for 18 hrs by CLSI based broth microdilution method; assay type: functional
Pseudomonas aeruginosa [13] = test: Antibacterial activity against Pseudomonas aeruginosa serotype J IID1011 incubated for 18 hrs by CLSI based broth microdilution method; assay type: functional
Pseudomonas aeruginosa [14] = test: Antibacterial activity against Pseudomonas aeruginosa PAO1 incubated for 18 hrs by CLSI based broth microdilution method; assay type: functional
Pseudomonas aeruginosa [15] = test: Antibacterial activity against Pseudomonas aeruginosa serotype B IID5004 incubated for 18 hrs by CLSI based broth microdilution method; assay type: functional
Pseudomonas aeruginosa [16] = test: Antibacterial activity against Pseudomonas aeruginosa serotype E IID1130 incubated for 18 hrs by CLSI based broth microdilution method; assay type: functional
Pseudomonas aeruginosa [17] = test: Antibacterial activity against Pseudomonas aeruginosa serotype L IID5141 incubated for 18 hrs by CLSI based broth microdilution method; assay type: functional
Pseudomonas aeruginosa [18] = test: Antibacterial activity against Pseudomonas aeruginosa isolate 1485 incubated for 18 hrs by CLSI based broth microdilution method; assay type: functional
Pseudomonas aeruginosa [19] = test: Antibacterial activity against Pseudomonas aeruginosa serotype K IID1012 incubated for 18 hrs by CLSI based broth microdilution method; assay type: functional
Pseudomonas aeruginosa [20] = test: Antibacterial activity against Pseudomonas aeruginosa serotype B IID1002 incubated for 18 hrs by CLSI based broth microdilution method; assay type: functional
Pseudomonas aeruginosa [21] = test: Antibacterial activity against Pseudomonas aeruginosa isolate 2867 incubated for 18 hrs by CLSI based broth microdilution method; assay type: functional
Pseudomonas aeruginosa [22] = test: Antibacterial activity against Pseudomonas aeruginosa serotype D IID1004 incubated for 18 hrs by CLSI based broth microdilution method; assay type: functional
Pseudomonas aeruginosa [23] = test: Antibacterial activity against Pseudomonas aeruginosa serotype B IID1007 incubated for 18 hrs by CLSI based broth microdilution method; assay type: functional
Pseudomonas aeruginosa [24] = test: Antibacterial activity against Pseudomonas aeruginosa serotype M IID1015 incubated for 18 hrs by CLSI based broth microdilution method; assay type: functional
Pseudomonas aeruginosa [25] = test: Antibacterial activity against Pseudomonas aeruginosa serotype B IID1013 incubated for 18 hrs by CLSI based broth microdilution method; assay type: functional
Pseudomonas aeruginosa [26] = test: Antibacterial activity against Pseudomonas aeruginosa serotype H IID1009 incubated for 18 hrs by CLSI based broth microdilution method; assay type: functional
Pseudomonas aeruginosa [27] = test: Antibacterial activity against Pseudomonas aeruginosa ATCC 27853 incubated for 18 hrs by CLSI based broth microdilution method; assay type: functional

IC50 [1]: 1.1 nM
Structure (SMILES): CCCCCCCCCCCCCCC[C@H](NC(=O)[C@@H](NC(=O)N[C@H](C(=O)O)C(C)C)[C@@H]1CCNC(=N)N1)C(=O)NCCCN[C@H](C(=O)O)[C@H](O[C@@H]1O[C@H](CN)[C@@H](O)[C@H]1O)[C@H]1O[C@@H](n2ccc(=O)[nH]c2=O)[C@H](O)[C@@H]1O

Structure (SMILES): C[C@H](N)C(=O)N(C)[C@@H](C)[C@H](NC(=O)[C@H](C)NC(=O)N[C@@H](Cc1c[nH]c2ccccc12)C(=O)O)C(=O)N/C=C1\O[C@@H](n2ccc(=O)[nH]c2=O)[C@H](O)[C@@H]1O
MIC (Pseudomonas aeruginosa [2]): > 128 µg/mL | MIC (Pseudomonas aeruginosa [3]): > 128 µg/mL | MIC (Pseudomonas aeruginosa [4]): > 128 µg/mL | MIC (Pseudomonas aeruginosa [5]): > 128 µg/mL | MIC (Pseudomonas aeruginosa [6]): > 128 µg/mL | IC50 [1]: 44 nM | IC50 (HepG2): > 100000 nM | MIC (Pseudomonas aeruginosa [7]): > 128 µg/mL | MIC (Pseudomonas aeruginosa [8]): > 128 µg/mL | IC50 [9]: 42 nM | MIC (Pseudomonas aeruginosa [10]): > 128 µg/mL | MIC (Pseudomonas aeruginosa [11]): > 128 µg/mL | MIC (Pseudomonas aeruginosa [12]): 16 µg/mL (≈ 22 µM) | MIC (Pseudomonas aeruginosa [13]): > 128 µg/mL | MIC (Pseudomonas aeruginosa [14]): 16 µg/mL (≈ 22 µM) | MIC (Pseudomonas aeruginosa [15]): 64 µg/mL (≈ 87.9 µM) | MIC (Pseudomonas aeruginosa [16]): > 128 µg/mL | MIC (Pseudomonas aeruginosa [17]): 32 µg/mL (≈ 44 µM) | MIC (Pseudomonas aeruginosa [18]): 16 µg/mL (≈ 22 µM) | MIC (Pseudomonas aeruginosa [19]): 64 µg/mL (≈ 87.9 µM) | MIC (Pseudomonas aeruginosa [20]): > 128 µg/mL | MIC (Pseudomonas aeruginosa [21]): 32 µg/mL (≈ 44 µM) | MIC (Pseudomonas aeruginosa [22]): > 128 µg/mL | MIC (Pseudomonas aeruginosa [23]): > 128 µg/mL | MIC (Pseudomonas aeruginosa [24]): > 128 µg/mL | MIC (Pseudomonas aeruginosa [25]): > 128 µg/mL | MIC (Pseudomonas aeruginosa [26]): 32 µg/mL (≈ 44 µM) | MIC (Pseudomonas aeruginosa [27]): 32 µg/mL (≈ 44 µM)

IC50 [1]: 2.7 nM
Structure (SMILES): CCCCCCCCCCCCCCC[C@H](N)C(=O)NCCCN[C@H](C(=O)O)[C@H](O[C@@H]1O[C@H](CN)[C@@H](O)[C@H]1O)[C@H]1O[C@@H](n2ccc(=O)[nH]c2=O)[C@H](O)[C@@H]1O

IC50 [1]: 1.4 nM | MIC (Pseudomonas aeruginosa [14]): 16 µg/mL (≈ 18.6 µM)
Structure (SMILES): CC[C@H](C)[C@H](NC(=O)N[C@@H](Cc1c[nH]c2ccccc12)C(=O)O)C(=O)N[C@H](C(=O)N/C=C1\O[C@@H](n2ccc(=O)[nH]c2=O)[C@H](O)[C@@H]1O)[C@H](C)N(C)C(=O)[C@@H](N)Cc1cccc(O)c1

IC50 [1]: 1.5 nM | MIC (Pseudomonas aeruginosa [14]): 16 µg/mL (≈ 18.9 µM)
Structure (SMILES): CC(C)[C@H](NC(=O)N[C@@H](Cc1c[nH]c2ccccc12)C(=O)O)C(=O)N[C@H](C(=O)N/C=C1\O[C@@H](n2ccc(=O)[nH]c2=O)[C@H](O)[C@@H]1O)[C@H](C)N(C)C(=O)[C@@H](N)Cc1cccc(O)c1

IC50 [1]: > 1000 nM
Structure (SMILES): CC(=O)N[C@H](C(=O)N/C=C1\O[C@@H](n2ccc(=O)[nH]c2=O)[C@H](O)[C@@H]1O)[C@H](C)N(C)C(=O)[C@@H](N)Cc1cccc(O)c1

IC50 [1]: 0.22 nM | MIC (Pseudomonas aeruginosa [14]): 16 µg/mL (≈ 17.5 µM)
Structure (SMILES): C[C@@H]([C@H](NC(=O)[C@H](Cc1ccc(O)cc1)NC(=O)N[C@@H](Cc1c[nH]c2ccccc12)C(=O)O)C(=O)N/C=C1\O[C@@H](n2ccc(=O)[nH]c2=O)[C@H](O)[C@@H]1O)N(C)C(=O)[C@@H](N)Cc1cccc(O)c1

IC50 [9]: 22 nM
Structure (SMILES): C[C@H](N)C(=O)N(C)[C@@H](C)[C@H](NC(=O)[C@H](C)NC(=O)N[C@@H](Cc1c[nH]c2ccccc12)C(=O)O)C(=O)N/C=C1/CC(O)[C@H](n2ccc(=O)[nH]c2=O)O1 (some centres undefined)

IC50 [1]: 0.6 nM | MIC (Pseudomonas aeruginosa [14]): 16 µg/mL (≈ 17.9 µM)
Structure (SMILES): C[C@@H]([C@H](NC(=O)[C@H](Cc1ccccc1)NC(=O)N[C@@H](Cc1c[nH]c2ccccc12)C(=O)O)C(=O)N/C=C1\O[C@@H](n2ccc(=O)[nH]c2=O)[C@H](O)[C@@H]1O)N(C)C(=O)[C@@H](N)Cc1cccc(O)c1

IC50 [1]: 1.8 nM | MIC (Pseudomonas aeruginosa [14]): 32 µg/mL (≈ 37.7 µM)
Structure (SMILES): C[C@@H](O)[C@H](NC(=O)N[C@@H](Cc1c[nH]c2ccccc12)C(=O)O)C(=O)N[C@H](C(=O)N/C=C1\O[C@@H](n2ccc(=O)[nH]c2=O)[C@H](O)[C@@H]1O)[C@H](C)N(C)C(=O)[C@@H](N)Cc1cccc(O)c1

IC50 [1]: 1.3 nM | MIC (Pseudomonas aeruginosa [14]): 64 µg/mL (≈ 78.1 µM)
Structure (SMILES): C[C@H](NC(=O)N[C@@H](Cc1c[nH]c2ccccc12)C(=O)O)C(=O)N[C@H](C(=O)N/C=C1\O[C@@H](n2ccc(=O)[nH]c2=O)[C@H](O)[C@@H]1O)[C@H](C)N(C)C(=O)[C@@H](N)Cc1cccc(O)c1

IC50 [1]: 4 nM | MIC (Pseudomonas aeruginosa [14]): 32 µg/mL (≈ 37.1 µM)
Structure (SMILES): CC(C)C[C@H](NC(=O)N[C@@H](Cc1c[nH]c2ccccc12)C(=O)O)C(=O)N[C@H](C(=O)N/C=C1\O[C@@H](n2ccc(=O)[nH]c2=O)[C@H](O)[C@@H]1O)[C@H](C)N(C)C(=O)[C@@H](N)Cc1cccc(O)c1

IC50 [1]: 1 nM | MIC (Pseudomonas aeruginosa [14]): 32 µg/mL (≈ 36.4 µM)
Structure (SMILES): CSCC[C@H](NC(=O)N[C@@H](Cc1c[nH]c2ccccc12)C(=O)O)C(=O)N[C@H](C(=O)N/C=C1\O[C@@H](n2ccc(=O)[nH]c2=O)[C@H](O)[C@@H]1O)[C@H](C)N(C)C(=O)[C@@H](N)Cc1cccc(O)c1

IC50 [1]: > 1000 nM
Structure (SMILES): CCCCCCCCCCCCCCCC(=O)N[C@@H](C)C(=O)N[C@H](C(=O)N/C=C1\O[C@@H](n2ccc(=O)[nH]c2=O)[C@H](O)[C@@H]1O)[C@H](C)N(C)C(=O)[C@@H](N)Cc1cccc(O)c1
